Assay results from US20230117470A1, “SUBSTITUTED PYRAZOLE COMPOUNDS AS TOLL RECEPTOR INHIBITORS” (BRISTOL-MYERS SQUIBB COMPANY, priority 2019, published 2023).
Structures can show the parent of a compound that is named as a salt.

How the values were obtained:
Type in all cases: cell-based
[1] = biological target: T1, human TLR7 (Homo sapiens, UniProt Q9NYK1); assay: TLR7 inhibition reporter assay (HEK-Blue cells, SEAP reporter, gardiquimod stimulation); settings: HEK-Blue cells overexpressing human TLR7, SEAP reporter, gardiquimod 7.5 μM
T1 construct: host or cells: HEK-Blue cells
T1 sequence (Q9NYK1 27-1049): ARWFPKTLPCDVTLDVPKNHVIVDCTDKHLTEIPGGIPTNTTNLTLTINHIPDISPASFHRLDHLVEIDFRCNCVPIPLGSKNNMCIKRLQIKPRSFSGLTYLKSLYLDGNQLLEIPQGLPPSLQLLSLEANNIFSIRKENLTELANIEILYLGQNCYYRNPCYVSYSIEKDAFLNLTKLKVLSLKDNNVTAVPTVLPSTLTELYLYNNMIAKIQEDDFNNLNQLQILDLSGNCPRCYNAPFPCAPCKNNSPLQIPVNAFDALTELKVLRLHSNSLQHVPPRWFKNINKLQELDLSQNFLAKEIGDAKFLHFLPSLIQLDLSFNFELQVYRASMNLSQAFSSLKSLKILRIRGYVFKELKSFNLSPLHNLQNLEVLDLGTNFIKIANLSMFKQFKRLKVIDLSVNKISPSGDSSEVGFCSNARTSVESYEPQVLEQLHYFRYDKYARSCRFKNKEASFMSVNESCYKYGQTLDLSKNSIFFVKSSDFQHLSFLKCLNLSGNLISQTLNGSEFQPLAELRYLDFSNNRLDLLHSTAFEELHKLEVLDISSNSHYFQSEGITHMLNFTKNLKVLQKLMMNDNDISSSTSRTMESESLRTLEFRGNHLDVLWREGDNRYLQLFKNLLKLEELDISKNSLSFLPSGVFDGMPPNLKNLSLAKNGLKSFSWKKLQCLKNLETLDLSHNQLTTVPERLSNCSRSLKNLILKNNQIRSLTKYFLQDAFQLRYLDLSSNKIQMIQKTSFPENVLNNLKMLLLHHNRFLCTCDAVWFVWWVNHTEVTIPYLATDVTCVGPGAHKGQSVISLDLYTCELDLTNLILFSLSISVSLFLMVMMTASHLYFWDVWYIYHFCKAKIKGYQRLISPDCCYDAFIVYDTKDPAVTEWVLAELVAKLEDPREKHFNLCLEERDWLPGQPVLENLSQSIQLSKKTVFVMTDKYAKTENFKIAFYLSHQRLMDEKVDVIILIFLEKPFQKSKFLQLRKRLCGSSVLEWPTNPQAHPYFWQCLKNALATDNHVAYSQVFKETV
Outline: (§1)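 Ligand levels differed by receptor: TLR7 got gardiquimod at 7.5 μM, TLR8 got R848 at 15.9 μM, and TLR9 got ODN2006 at 5 nM, each added after a 30-min room-temperature compound exposure. Incubation lasted 22 h at 37° C before colorimetric SEAP detection.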

[2] = biological target: T2, human TLR9 (Homo sapiens, UniProt Q9NR96); assay: TLR9 inhibition reporter assay (HEK-Blue cells, SEAP reporter, ODN2006 stimulation); settings: HEK-Blue cells overexpressing human TLR9, SEAP reporter, ODN2006 5 nM
T2 construct: host or cells: HEK-Blue cells
T2 sequence (Q9NR96 26-1032): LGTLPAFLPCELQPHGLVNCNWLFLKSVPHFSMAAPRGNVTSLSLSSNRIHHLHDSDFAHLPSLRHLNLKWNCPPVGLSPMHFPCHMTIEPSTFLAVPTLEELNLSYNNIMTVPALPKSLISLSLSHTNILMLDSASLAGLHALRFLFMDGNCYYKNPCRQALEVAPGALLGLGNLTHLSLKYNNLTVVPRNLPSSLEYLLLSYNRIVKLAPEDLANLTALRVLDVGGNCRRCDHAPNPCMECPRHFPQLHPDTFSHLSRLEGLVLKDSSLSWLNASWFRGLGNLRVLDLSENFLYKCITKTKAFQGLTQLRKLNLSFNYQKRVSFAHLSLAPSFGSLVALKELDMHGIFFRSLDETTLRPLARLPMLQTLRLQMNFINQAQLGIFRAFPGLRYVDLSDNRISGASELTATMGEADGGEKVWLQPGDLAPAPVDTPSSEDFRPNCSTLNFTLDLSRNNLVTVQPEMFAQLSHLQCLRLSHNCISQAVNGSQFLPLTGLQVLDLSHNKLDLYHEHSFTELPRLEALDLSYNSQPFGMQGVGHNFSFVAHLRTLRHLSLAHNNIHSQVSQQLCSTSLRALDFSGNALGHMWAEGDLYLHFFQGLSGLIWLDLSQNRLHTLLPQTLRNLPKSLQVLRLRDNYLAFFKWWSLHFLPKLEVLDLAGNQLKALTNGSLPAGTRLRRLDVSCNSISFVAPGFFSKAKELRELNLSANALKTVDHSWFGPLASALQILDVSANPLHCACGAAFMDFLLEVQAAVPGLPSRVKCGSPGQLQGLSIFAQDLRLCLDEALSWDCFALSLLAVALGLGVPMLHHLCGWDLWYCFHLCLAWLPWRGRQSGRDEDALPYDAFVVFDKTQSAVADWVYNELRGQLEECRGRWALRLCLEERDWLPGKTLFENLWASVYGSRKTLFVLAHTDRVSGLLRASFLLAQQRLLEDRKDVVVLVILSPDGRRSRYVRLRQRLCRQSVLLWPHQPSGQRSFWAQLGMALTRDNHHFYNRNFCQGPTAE
Outline: as §1

[3] = biological target: T3, human TLR8 (Homo sapiens, UniProt Q9NR97); assay: TLR8 inhibition reporter assay (HEK-Blue cells, SEAP reporter, R848 stimulation); settings: HEK-Blue cells overexpressing human TLR8, SEAP reporter, R848 15.9 μM
T3 construct: host or cells: HEK-Blue cells
T3 sequence (Q9NR97 27-1041): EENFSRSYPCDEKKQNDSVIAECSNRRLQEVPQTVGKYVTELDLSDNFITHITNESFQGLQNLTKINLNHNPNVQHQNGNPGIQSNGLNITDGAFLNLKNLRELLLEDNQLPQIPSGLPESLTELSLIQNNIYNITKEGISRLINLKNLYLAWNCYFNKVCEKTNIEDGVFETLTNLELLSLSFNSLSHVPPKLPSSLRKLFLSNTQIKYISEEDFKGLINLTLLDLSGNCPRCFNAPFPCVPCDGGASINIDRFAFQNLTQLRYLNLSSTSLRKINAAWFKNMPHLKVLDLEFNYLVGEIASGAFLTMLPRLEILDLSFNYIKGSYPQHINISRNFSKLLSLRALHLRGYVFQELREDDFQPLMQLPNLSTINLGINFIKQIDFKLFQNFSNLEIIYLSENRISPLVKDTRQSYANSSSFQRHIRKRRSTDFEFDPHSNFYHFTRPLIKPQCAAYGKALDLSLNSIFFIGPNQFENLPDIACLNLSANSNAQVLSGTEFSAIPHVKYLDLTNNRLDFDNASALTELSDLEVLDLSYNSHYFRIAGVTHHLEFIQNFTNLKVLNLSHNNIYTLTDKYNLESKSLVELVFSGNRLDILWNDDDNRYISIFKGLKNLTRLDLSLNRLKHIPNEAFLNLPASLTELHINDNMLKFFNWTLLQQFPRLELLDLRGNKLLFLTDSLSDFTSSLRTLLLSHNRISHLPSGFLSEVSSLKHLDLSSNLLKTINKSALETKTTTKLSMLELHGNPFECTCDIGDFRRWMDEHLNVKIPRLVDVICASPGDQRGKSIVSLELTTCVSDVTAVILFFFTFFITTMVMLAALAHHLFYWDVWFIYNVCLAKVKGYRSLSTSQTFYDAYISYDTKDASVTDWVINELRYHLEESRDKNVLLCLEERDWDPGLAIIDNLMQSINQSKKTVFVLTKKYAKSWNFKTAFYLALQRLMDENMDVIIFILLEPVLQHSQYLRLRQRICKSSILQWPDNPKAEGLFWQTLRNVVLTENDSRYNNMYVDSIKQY
Outline: as §1

IC50 [1] [nM] | IC50 [2] [nM] | IC50 [3] [nM] | Compound
0.96 | 4280 | 12.7 | Cc1cc(-c2[nH]nc(C(=O)NC3CCN(CC4CC4)CC3)c2C(C)C)cn2ncnc12 [Example 73]
11.8 | > 50000 | 9.93 | Cc1cc(-c2[nH]nc(C(=O)N[C@H]3CC[C@H](NC(C)C(C)(C)C)CC3)c2C(C)C)cn2ncnc12 (stereo partly drawn) [Example 148]
4.64 | 25500 | 3.41 | Cc1cc(-c2[nH]nc(-c3ccc4c(c3)CCNC4)c2C(C)C)cn2ncnc12 [Example 213, 6-(4-isopropyl-5-(8-methyl-[1,2,4]triazolo[1,5-a]pyridin-6-yl)-1H-pyrazol-3-yl)-1,2,3,4-tetrahydroisoquinoline, HCl]
18.8 | > 50000 | 1.7 | CCN(C)C1CCC(c2n[nH]c(-c3cc(C)c4ncnn4c3)c2C(C)C)CC1 (single isomer, unassigned) [Example 283]
0.71 | 1910 | 3.44 | Cc1cc(-c2[nH]nc(C(=O)NC3CCN(CC(C)(C)C)CC3)c2C(C)C)cn2ncnc12 [Example 74]
6.86 | 15100 | 4.88 | Cc1cc(-c2[nH]nc(-c3nc4c(s3)CN(CC(C)C)CC4)c2C(C)C)cn2ncnc12 [Example 255]
1.43 | 10800 | 0.33 | Cc1cc(-c2[nH]nc(-c3ccc4c(c3)CCNC4)c2C(C)C)cc(C)n1 [Example 278, 6-(5-(2,6-dimethylpyridin-4-yl)-4-isopropyl-1H-pyrazol-3-yl)-1,2,3,4-tetrahydroisoquinoline]
1.19 | 3610 | 36.7 | Cc1cc(-c2[nH]nc(C(=O)N[C@H]3CC[C@@H](NC(C)C(C)C)CC3)c2C(C)C)cn2ncnc12 (stereo partly drawn) [Example 99]
0.98 | 13200 | 6.83 | Cc1cc(-c2[nH]nc(C(=O)NC3CCC(NCC(C)(C)C)CC3)c2C(C)C)cn2ncnc12 (stereo not drawn) [Example 126]
48 | 3600 | 3.46 | Cc1cc(-c2[nH]nc(C(=O)N[C@H]3CC[C@H](N(CC4CC4)CC4CC4)CC3)c2C(C)C)cn2ncnc12 [Example 103]
0.62 | 7390 | 0.63 | Cc1cc(-c2[nH]nc(C3CCN(CC(=O)N(C)C)CC3)c2C(C)C)cn2ncnc12 [compound 212]
4.54 | 6300 | 2.8 | COc1cc(-c2[nH]nc(-c3cnc(C4CCN(CC5CCOCC5)CC4)cn3)c2C(C)C)cn2ncnc12 [Example 376]
10.3 | 9560 | 3.56 | CCC(CC)N1CCC(c2cnc(-c3n[nH]c(-c4cc(OC)c5ncnn5c4)c3C(C)C)cn2)CC1 [Example 386]
5.09 | 6290 | 16.8 | Cc1cc(-c2[nH]nc(C(=O)NC3CCC(NC4(C)COC4)CC3)c2C(C)C)cn2ncnc12 (stereo not drawn) [Example 123]
2.27 | 6560 | 5.82 | Cc1cc(-c2[nH]nc(C(=O)NC3CCN(C(C)C)CC3)c2C(C)C)cn2ncnc12 [Example 2]
5.42 | 17600 | 7.97 | CCCN1CC(c2ccc(-c3n[nH]c(-c4cc(C)c5ncnn5c4)c3C(C)C)cc2)C1 [Example 326]
7.26 | 15200 | 3.56 | Cc1cc(-c2[nH]nc(C(=O)NCC3CN(CC(C)(C)C)CCO3)c2C(C)C)cn2ncnc12 (stereo not drawn) [Example 144]
3.68 | 4790 | 23 | CCC(CC)CN[C@H]1CC[C@@H](NC(=O)c2n[nH]c(-c3cc(C)c4ncnn4c3)c2C(C)C)CC1 [Example 101]
0.59 | 2870 | 1.64 | Cc1noc(C)c1CN1CCC(NC(=O)c2n[nH]c(-c3cc(C)c4ncnn4c3)c2C(C)C)CC1 [Example 78]
2.24 | 5500 | 1.66 | CCCN1CCC(NC(=O)c2n[nH]c(-c3cc(OC)c4ncnn4c3)c2CC(F)(F)F)CC1 [Example 195, 5-(8-methoxy-[1,2,4]triazolo[1,5-a]pyridin-6-yl)-N-(1-propylpiperidin-4-yl)-4-(2,2,2-trifluoroethyl)-1H-pyrazole-3-carboxamide]
23.8 | 18300 | 17.5 | COc1cc(-c2[nH]nc(-c3nc4c(s3)CN(C)CC4)c2C(C)C)cn2ncnc12 [Example 262]
7.97 | 8990 | 0.42 | CNC1CCC(c2n[nH]c(-c3cc(C)c4ncnn4c3)c2C(C)C)CC1 (single isomer, unassigned) [Example 294]
3.6 | 15400 | 190 | Cc1cc(-c2[nH]nc(C(=O)N[C@H]3CC[C@H](N(CCC(C)(C)C)CCC(C)(C)C)CC3)c2C(C)C)cn2ncnc12 [Example 107]
2.38 | 1760 | 4.65 | CNCCN1CCC(NC(=O)c2n[nH]c(-c3cc(C)c4ncnn4c3)c2C(C)C)CC1 [Example 170]
